Reference: publication PMC11714206, “Massively Parallel Screening of Toll/Interleukin‐1 Receptor (TIR)‐Derived Peptides Reveals Multiple Toll‐Like Receptors (TLRs)‐Targeting Immunomodulatory Peptides” (Advanced Science, 2024)

Biological target: T1, MyD88^TIR (Homo sapiens, UniProt Q99836)
T1 construct: MyD88 (residues 148–296); 6xHis; made in house; host or cells: E. coli BL21 (DE3)
Assay: T‐Surf phage library (P8 and P3) selection against MyD88^TIR, four rounds, NGS read counts
Format: binding
Details: for P3_MyD88 Rank (after) / P3_MyD88 Rank (before): P3 library; for P8_MyD88 Rank (after) / P8_MyD88 Rank (before): P8 library; for Population: 4th round of selection against MyD88 TIR, share of NGS reads
How it was run: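 Read counts come from NGS of phage pools after the fourth selection round, barcoded by 20-cycle PCR and filtered for quality ≥30. Each round: phage incubated 1 h at RT on immobilised TIR protein (5 µg mL^−1, BSA-blocked), washed, HCl-eluted and amplified in E. coli TG1.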

[1] = 4R selection against MyD88, rank after grouping
[2] = 4R selection against MyD88, rank before grouping
[3] = selection against MyD88 TIR, rank by count after grouping
[4] = selection against MyD88 TIR, rank by count before grouping
[5] = P8_MyD88: rank by count after grouping
[6] = P8_MyD88: rank by count before grouping
[7] = P8_MyD88 pool: P8 T-Surf phage library
[8] = selection against MyD88, rank by count after grouping
[9] = selection against MyD88, rank by count before grouping
[10] = selection against MyD88, rank after grouping
[11] = selection against MyD88, rank before grouping
[12] = P8_MyD88: rank by NGS read count after grouping
[13] = P8_MyD88: rank by NGS read count before grouping
[14] = P3_MyD88: rank by count after grouping
[15] = P3_MyD88: rank by count before grouping
[16] = P3_MyD88 pool: P3 T-Surf phage library

T1 sequence (Q99836 148-296): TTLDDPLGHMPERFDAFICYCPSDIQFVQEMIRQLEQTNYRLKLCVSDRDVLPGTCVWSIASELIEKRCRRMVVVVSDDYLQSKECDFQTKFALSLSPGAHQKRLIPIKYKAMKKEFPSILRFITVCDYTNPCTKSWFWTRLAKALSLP

Sequence: WFWDKQKYTLPHRYEP
- P3_MyD88 Rank (after) [1]: 583
- P3_MyD88 Rank (before) [2]: 1418

Sequence: WFWQKLNYAMPHLARL
- P8_MyD88 Rank (after) [3]: 200
- P8_MyD88 Rank (before) [4]: 271

Sequence: WFWQSLRNTIIMDNQA
- P8_MyD88 Rank (after) [1]: 605
- P8_MyD88 Rank (before) [2]: 1355

Sequence: WGQAVTEDLWGWLFNP
- Rank (after) [5]: 176
- Rank (before) [6]: 201

Sequence: WILRAIWNSFGIVCI
- Rank (after) [5]: 475
- Rank (before) [6]: 1653

Sequence: WIWEKLKYALPHRYEP
- P3_MyD88 Rank (after) [1]: 640
- P3_MyD88 Rank (before) [2]: 1424

Sequence: WKEALTYVSLLVGFPF
- P8_MyD88 Rank (after) [3]: 224
- P8_MyD88 Rank (before) [4]: 380

Sequence: WLESVLEDKFGYSLAL
- Rank (after) [5]: 110
- Rank (before) [6]: 116
- Population [7]: 0.02%

Sequence: WLLDQLDKILEAHGTT
- P8_MyD88 Rank (after) [8]: 693
- P8_MyD88 Rank (before) [9]: 1380

Sequence: WMRALAYIVNIVGESS
- P8_MyD88 Rank (after) [3]: 268
- P8_MyD88 Rank (before) [4]: 529

Sequence: WPEDYQDIGWFLDNLS
- P8_MyD88 Rank (after) [3]: 202
- P8_MyD88 Rank (before) [4]: 275

Sequence: WPQDPQDLGWFYERLE
- Rank (after) [5]: 416
- Rank (before) [6]: 899

Sequence: WRDALNNISSIFGWVA
- P8_MyD88 Rank (after) [8]: 764
- P8_MyD88 Rank (before) [9]: 1648

Sequence: WRDVLKYIANLSGWDS
- P8_MyD88 Rank (after) [3]: 243
- P8_MyD88 Rank (before) [4]: 435

Sequence: WRTALTKVGNMLGWIS
- Rank (after) [5]: 430
- Rank (before) [6]: 897

Sequence: WRWMNCCRFCMRVNC
- P8_MyD88 Rank (after) [8]: 729
- P8_MyD88 Rank (before) [9]: 1649

Sequence: WSLDELLKILYAKETI
- P8_MyD88 Rank (after) [10]: 508
- P8_MyD88 Rank (before) [11]: 1386

Sequence: WSQPEFRAAMQAVLEL
- P8_MyD88 Rank (after) [3]: 274
- P8_MyD88 Rank (before) [4]: 530

Sequence: WTLNELQTILNILDIG
- P8_MyD88 Rank (after) [1]: 656
- P8_MyD88 Rank (before) [2]: 1656

Sequence: WVFASNLETFWARLYY
- P8_MyD88 Rank (after) [1]: 599
- P8_MyD88 Rank (before) [2]: 1388

Sequence: WVFQTLYSTLEDEYAF
- P8_MyD88 Rank (after) [3]: 228
- P8_MyD88 Rank (before) [4]: 372

Sequence: WVLHKVLQILHAREIY
- Rank (after) [12]: 976
- Rank (before) [13]: 1390

Sequence: WWIQALAEVANMAGED
- Rank (after) [5]: 134
- Rank (before) [6]: 158
- Population [7]: 0.00925%

Sequence: YAASMRWFGELAKIVG
- P8_MyD88 Rank (after) [10]: 558
- P8_MyD88 Rank (before) [11]: 1710

Sequence: YAASPRLFGEPVKIVG
- P8_MyD88 Rank (after) [10]: 497
- P8_MyD88 Rank (before) [11]: 1755

Sequence: YAASPRWLDDLVNIVG
- P8_MyD88 Rank (after) [10]: 521
- P8_MyD88 Rank (before) [11]: 1754

Sequence: YAASPWWFDDIQQIQLFWD
- P8_MyD88 Rank (after) [10]: 543
- P8_MyD88 Rank (before) [11]: 1720

Sequence: YAASPWWFDELLQIA
- P8_MyD88 Rank (after) [1]: 633
- P8_MyD88 Rank (before) [2]: 1740

Sequence: YAASPWWFDELVHILW
- P8_MyD88 Rank (after) [8]: 678
- P8_MyD88 Rank (before) [9]: 1722

Sequence: YAASPWWFDELVKILE
- Rank (after) [12]: 906
- Rank (before) [13]: 1733

Sequence: YAASPWWFDELVKTVR
- Rank (after) [5]: 418
- Rank (before) [6]: 1762

Sequence: YAASPWWFDELVRIVC
- Rank (after) [5]: 407
- Rank (before) [6]: 1723

Sequence: YAASPWWFDELVTILG
- Rank (after) [5]: 433
- Rank (before) [6]: 1725

Sequence: YAASPWWFYERVEILG
- P8_MyD88 Rank (after) [1]: 612
- P8_MyD88 Rank (before) [2]: 1716

Sequence: YAASPWWLVELVQIVG
- P8_MyD88 Rank (after) [8]: 752
- P8_MyD88 Rank (before) [9]: 1758

Sequence: YAASTWWHTVLARLMG
- P8_MyD88 Rank (after) [10]: 540
- P8_MyD88 Rank (before) [11]: 1760

Sequence: YAFTCHLHRYLVQRCV
- P3_MyD88 Rank (after) [8]: 692
- P3_MyD88 Rank (before) [9]: 1481

Sequence: YAFTCHLQRYLVQRGV
- Rank (after) [14]: 118
- Rank (before) [15]: 1545

Sequence: YAFTGHFQRYLVQRGV
- Rank (after) [14]: 422
- Rank (before) [15]: 1485

Sequence: YAFTGHLCRCLVLRGA
- P3_MyD88 Rank (after) [10]: 506
- P3_MyD88 Rank (before) [11]: 1489

Sequence: YAFTGHLHATL
- Population [16]: 0.00291%

Sequence: YAFTGHLHHALRLNKIETF
- Rank (after) [14]: 95
- Rank (before) [15]: 278

Sequence: YAFTGHLHRDLVQRGL
- Rank (after) [14]: 427
- Rank (before) [15]: 1521

Sequence: YAFTGHLHRIWCSVA
- P3_MyD88 Rank (after) [1]: 581
- P3_MyD88 Rank (before) [2]: 1523

Sequence: YAFTGHLHRYIEQRSG
- P3_MyD88 Rank (after) [1]: 610
- P3_MyD88 Rank (before) [2]: 1533

Sequence: YAFTGHLHRYLVLRGA
- P3_MyD88 Rank (after) [1]: 630
- P3_MyD88 Rank (before) [2]: 1502

Sequence: YAFTGHLHRYLVPRGL
- P3_MyD88 Rank (after) [3]: 248
- P3_MyD88 Rank (before) [4]: 1503

Sequence: YAFTGHLHRYLVQPGESVC
- Rank (after) [14]: 456
- Rank (before) [15]: 1515

Sequence: YAFTGHLHRYLVQRAA
- Population [16]: 0.0032%

Sequence: YAFTGHLHRYLVQRGV
- Population [16]: 0.00378%

Sequence: YAFTGHLHRYLVQRL
- Rank (after) [14]: 134
- Rank (before) [15]: 834

Sequence: YAFTGHLHSYLVQRSV
- Rank (after) [14]: 125
- Rank (before) [15]: 1530

Sequence: YAFTGHLPRDLVLRGG
- P3_MyD88 Rank (after) [10]: 491
- P3_MyD88 Rank (before) [11]: 1493

Sequence: YAFTGHLQRYLVQRCV
- P3_MyD88 Rank (after) [3]: 234
- P3_MyD88 Rank (before) [4]: 1531

Sequence: YAFTGHLRKQSGEFG
- P3_MyD88 Rank (after) [10]: 486
- P3_MyD88 Rank (before) [11]: 1491

Sequence: YAFTGHPPRYLVQRGV
- Rank (after) [14]: 433
- Rank (before) [15]: 1536

Sequence: YAFTGQLNQYLVQRGV
- P3_MyD88 Rank (after) [1]: 623
- P3_MyD88 Rank (before) [2]: 1538

Sequence: YAFTVHLHRYLVQRGG
- Rank (after) [14]: 448
- Rank (before) [15]: 1482

Sequence: YALTCHLHRYLVQRGV
- P3_MyD88 Rank (after) [3]: 204
- P3_MyD88 Rank (before) [4]: 1552

Sequence: YALTGHKHRYMVQRGV
- P3_MyD88 Rank (after) [3]: 193
- P3_MyD88 Rank (before) [4]: 1554

Sequence: YARSDDNYYYWVTHVLLRHL
- P8_MyD88 Rank (after) [10]: 507
- P8_MyD88 Rank (before) [11]: 1764

Sequence: YASCDDFDYYLETAVLLRHL
- P8_MyD88 Rank (after) [10]: 570
- P8_MyD88 Rank (before) [11]: 1770

Sequence: YASNDDNDYYWVTHVRLRHL
- Rank (after) [12]: 1023
- Rank (before) [13]: 1909

Sequence: YASRSWYLDELVHIPW
- Rank (after) [12]: 1022
- Rank (before) [13]: 1842

Sequence: YASSIWALNELIRILE
- Rank (after) [5]: 138
- Rank (before) [6]: 149
- Population [7]: 0.0108%

Sequence: YASSSWALDELLKILYANETM
- Rank (after) [5]: 190
- Rank (before) [6]: 277

Sequence: YASSSWALDELLQILHARELF
- Rank (after) [5]: 175
- Rank (before) [6]: 207

Sequence: YASSSWALDELLQILW
- P8_MyD88 Rank (after) [8]: 720
- P8_MyD88 Rank (before) [9]: 1891

Sequence: YASSSWALDELWLILEQR
- Rank (after) [12]: 961
- Rank (before) [13]: 1883

Sequence: YASSSWALDELWNIF
- Rank (after) [5]: 167
- Rank (before) [6]: 193
- Population [7]: 0.00617%

Sequence: YASSSWALEELVKIMEAM
- Rank (after) [5]: 454
- Rank (before) [6]: 1898

Sequence: YASSSWALLELSKIFEAM
- Rank (after) [12]: 994
- Rank (before) [13]: 1899

Sequence: YASSSWALNELLEILDAKETM
- Rank (after) [5]: 456
- Rank (before) [6]: 1901

Sequence: YASSSWALNELPRILY
- Rank (after) [5]: 389
- Rank (before) [6]: 1902

Sequence: YASSSWELDELLRIPY
- Rank (after) [12]: 966
- Rank (before) [13]: 1904

Sequence: YASSSWYLAELVHMPW
- Rank (after) [12]: 989
- Rank (before) [13]: 1854
